According to PubChem BioAssay (NCI):
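All cell lines were grown in 96-well plates and treated with compound for 48 hours. Abbreviation: GI50, concentration required for 50% inhibition of growth. Definition used: TGI = concentration required for complete inhibition of growth.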

Assays:
Test in all cases: inhibition of tumour cell growth, NCI panel, 48 h
[1] = system: SNB-19 CNS
[2] = system: A498 renal
[3] = system: MDA-MB-231 breast
[4] = system: NCI/ADR-RES ovarian
[5] = system: U251 CNS
[6] = system: KM12 colon
[7] = system: ACHN renal
[8] = system: T-47D breast
[9] = system: EKVX NSCLC
[10] = system: OVCAR-3 ovarian
[11] = system: SK-MEL-28 melanoma
[12] = system: BT-549 breast
[13] = system: HS 578T breast
[14] = system: TK-10 renal
[15] = system: HOP-62 NSCLC
[16] = system: HOP-92 NSCLC
[17] = system: DU-145 prostate
[18] = system: PC-3 prostate
[19] = system: CAKI-1 renal
[20] = system: OVCAR-5 ovarian
[21] = system: NCI-H522 lung
[22] = system: OVCAR-8 ovarian
[23] = system: LOX IMVI melanoma
[24] = system: SK-OV-3 ovarian
[25] = system: SF-539 CNS
[26] = system: HL-60(TB) leukemia
[27] = system: A549 NSCLC
[28] = system: SF-268 CNS
[29] = system: IGROV1 ovarian
[30] = system: UO-31 renal
[31] = system: CCRF-CEM leukemia
[32] = system: UACC-62 melanoma
[33] = system: SNB-75 CNS
[34] = system: SK-MEL-2 melanoma
[35] = system: MOLT-4 leukemia
[36] = system: HT29 colon
[37] = system: SK-MEL-5 melanoma
[38] = system: NCI-H226 lung
[39] = system: K-562 leukemia
[40] = system: MDA-MB-435
[41] = system: 786-0 renal
[42] = system: RPMI-8226 leukemia
[43] = system: NCI-H23 lung
[44] = system: COLO 205 colon
[45] = system: RXF 393 renal
[46] = system: MALME-3M melanoma
[47] = system: M14 melanoma
[48] = system: SN12C renal
[49] = system: HCT-116 colon
[50] = system: HCT-15 colon
[51] = system: HCC-2998 colon
[52] = system: OVCAR-4 ovarian
[53] = system: SF-295 CNS
[54] = system: MCF7 breast
[55] = system: UACC-257 melanoma
[56] = system: NCI-H460 lung
[57] = system: SW-620 colon

COc1cc2c3c(n(CCCN4CCC(N)CC4)c(=O)c2cc1OC)-c1cc2c(cc1C3=O)OCO2
GI50 [1]: 1.46 µM
TGI [1]: 8.7 µM
GI50 [2]: 3.03 µM
TGI [2]: 10.8 µM
GI50 [3]: 0.682 µM
TGI [3]: 1.36 µM
GI50 [4]: 2.93 µM
TGI [4]: 20.8 µM
GI50 [5]: 0.307 µM
TGI [5]: 0.945 µM
GI50 [6]: 0.619 µM
TGI [6]: 1.59 µM
GI50 [7]: 0.336 µM
TGI [7]: 1.24 µM
GI50 [8]: 1.06 µM
TGI [8]: 4 µM
GI50 [9]: 1.31 µM
TGI [9]: 3.87 µM
GI50 [10]: 0.765 µM
TGI [10]: 1.9 µM
GI50 [11]: 0.983 µM
TGI [11]: 2.9 µM
GI50 [12]: 2.41 µM
TGI [12]: 9.84 µM
GI50 [13]: 1.69 µM
TGI [13]: 11.7 µM
GI50 [14]: 0.774 µM
TGI [14]: 4.36 µM
GI50 [15]: 0.423 µM
TGI [15]: 1.11 µM
GI50 [16]: 0.202 µM
TGI [16]: 1.5 µM
GI50 [17]: 0.14 µM
TGI [17]: 0.803 µM
GI50 [18]: 0.302 µM
TGI [18]: 2.11 µM
GI50 [19]: 0.311 µM
TGI [19]: 2.99 µM
GI50 [20]: 1.45 µM
TGI [20]: 5.15 µM
GI50 [21]: 3.4 µM
TGI [21]: 21.7 µM
GI50 [22]: 0.368 µM
TGI [22]: 1.51 µM
GI50 [23]: 0.298 µM
TGI [23]: 1.02 µM
GI50 [24]: 3.47 µM
TGI [24]: 13.2 µM
GI50 [25]: 0.254 µM
TGI [25]: 0.863 µM
GI50 [26]: 4.04 µM
TGI [26]: 7.87 µM
GI50 [27]: 0.278 µM
TGI [27]: 0.927 µM
GI50 [28]: 1.72 µM
TGI [28]: 8.89 µM
GI50 [29]: 1.7 µM
TGI [29]: 16 µM
GI50 [30]: 2.32 µM
TGI [30]: 16.5 µM
GI50 [31]: 0.129 µM
TGI [31]: 0.681 µM
GI50 [32]: 1.33 µM
TGI [32]: 6.34 µM
GI50 [33]: 0.89 µM
TGI [33]: 5.56 µM
GI50 [34]: 3.68 µM
TGI [34]: 24.2 µM
GI50 [35]: 0.0456 µM
TGI [35]: 1.89 µM
GI50 [36]: 0.621 µM
TGI [36]: 9.81 µM
GI50 [37]: 1.84 µM
TGI [37]: 8.47 µM
GI50 [38]: 0.757 µM
TGI [38]: 2.95 µM
GI50 [39]: 0.587 µM
TGI [39]: 6.91 µM
GI50 [40]: 1.77 µM
TGI [40]: 8.47 µM
GI50 [41]: 0.763 µM
TGI [41]: 2.38 µM
GI50 [42]: 0.202 µM
TGI [42]: 1.02 µM
GI50 [43]: 0.475 µM
TGI [43]: 1.6 µM
GI50 [44]: 2.86 µM
TGI [44]: 7.38 µM
GI50 [45]: 0.94 µM
TGI [45]: 3.31 µM
GI50 [46]: 2.09 µM
TGI [46]: 9.89 µM
GI50 [47]: 1.34 µM
TGI [47]: 5.23 µM
GI50 [48]: 0.338 µM
TGI [48]: 1.08 µM
GI50 [49]: 0.119 µM
TGI [49]: 0.807 µM
GI50 [50]: 1.01 µM
TGI [50]: 6.01 µM
GI50 [51]: 0.143 µM
TGI [51]: 3.52 µM
GI50 [52]: 0.211 µM
TGI [52]: 1.27 µM
GI50 [53]: 0.479 µM
TGI [53]: 1.36 µM
GI50 [54]: 0.283 µM
TGI [54]: 1.01 µM
GI50 [55]: 7.9 µM
TGI [55]: 17.9 µM
GI50 [56]: 0.184 µM
TGI [56]: 0.858 µM
GI50 [57]: 0.447 µM
TGI [57]: 1.43 µM
